Measurements: patent publication US20250261639A1, “ZEALACTONE DERIVATIVES AS PLANT GROWTH REGULATORS” (SYNGENTA CROP PROTECTION AG, priority 2020, published 2025)
Each block holds one molecule with its values, some of them ahead of it.

Key:
[1] = tested on: Corn seeds (var. NK Falkone); assay: Corn seed germination under cold stress conditions; format: in vivo; conditions: Zea mays, 15° C., 60% Relative Humidity; for change in vivo at 250 µM: read-out: increase of the slope of the curve at Tso (uniformity of germination) compared to untreated control; for percent reduction of T50 germination time vs untreated control at 250 µM: read-out: reduction of the Tso value (time taken for 50% germination; speed of germination) in comparison with untreated control
Procedure: Method: Corn seeds (var. NK Falkone, Syngenta Seeds SAS, St. Sauveur, France) were sorted by size using a sieve to eliminate round seeds. The corn seeds were placed in 24 well plates (1 seed per well, each plate was considered as one experimental unit or replicate). Germination was initiated by the addition of 250 μL of distilled water containing 0.5% DMSO per well (and the tested the substance at the given concentration). 8 replicates (i.e., 8 plates) were used for each treatment characterization. Plates were sealed using seal foil (Polyolefin Art. Nr. 900320) from HJ-BIOANALYTIK. All plates were placed in a climatic chamber at 15° C. with 60% Relative Humidity. The experiment was laid out in a completely randomized design.
Germination was followed over time by taking photographs at different time points. Image analysis was performed automatically with a macro which was developed using the Image J software. A kinetic analysis of germination was carried out by fitting a trend curve. Three parameters were calculated from the trend curve: the Tso (time taken for 50% germination; speed of germination); the slope of the curve (the uniformity of germination) and the plateau (the total percentage of germinated seeds).
The treatments with a given compound were performed at 4 concentrations 2, 10, 50, and 250 μM.

[2] = tested on: Corn leaf discs (variety Multitop); assay: Dark induced senescence of corn leaf; conditions: Zea mays, foliar, 192 h; leaf discs in the dark, 23° C., 75% humidity, 8 days, 0.5% DMSO; read-out: IC50 (concentration at which 50% senescence was achieved)
Procedure: It is known that strigolactones regulate (accelerate) leaf senescence, potentially through D14 receptor signaling. It is also known that senescence is an important process allowing reallocation of nutrients. Compounds of formula (I) were tested in a corn leaf dark induced senescence assay and compared to untreated control.
Corn plants of variety Multitop were grown in a greenhouse with relative 75% humidity and at 23-25° C. for 6 weeks. 1.4 cm diameter leaf discs were placed into 24-well plates containing a test compounds in a concentration gradient (100 μM-0.0001 μM) at a final concentration of 0.5% DMSO. Each concentration was tested in 12 replicates. Plates were sealed with seal foil. The foil was pierced to provide gas exchange in each well. The plates were placed into the completely dark climatic chamber. Plates were incubated in the chamber with 75% humidity and at 23° C. for 8 days. On days 0, 5, 6, 7 and 8 photographs were taken of each plate, and image analysis conducted with a macro developed using the ImageJ software. The image analysis was used to determine the concentration at which 50% senescence was achieved (IC50). The lower the value, the higher senescence induction potency.

Compound: COC(=O)C(/C=C/C1CCCCC1)=C/OC1OC(=O)C(C)=C1C (centres unmarked) [Compound P-3, methyl (E,2E)-4-cyclohexyl-2-[(3,4-dimethyl-5-oxo-2H-furan-2-yl)oxymethylene]but-3-enoate]
change in vivo at 250 µM [1]: > 50%
percent reduction of T50 germination time vs untreated control at 250 µM [1]: > 5%

Compound: COC(=O)C(/C=C/C(C)(C)C(=O)OC)=C/OC1C=C(C)C(=O)O1 (centres unmarked) [Compound P-19, dimethyl (E,5E)-2,2-dimethyl-5-[(4-methyl-5-oxo-2H-furan-2-yl)oxymethylene]hex-3-enedioate]
change in vivo at 250 µM [1]: > 50%
percent reduction of T50 germination time vs untreated control at 250 µM [1]: > 5%
IC50 [2]: < 3000 nM

Compound: COC(=O)C(/C=C/C(C)(C)N(C)C(C)=O)=C/OC1C=C(C)C(=O)O1 (centres unmarked) [Compound P-17, methyl (E,2E)-5-[acetyl(methyl)amino]-5-methyl-2-[(4-methyl-5-oxo-2H-furan-2-yl)oxymethylene]hex-3-enoate]
IC50 [2]: < 3000 nM

Compound: COC(=O)/C(C=C(C)C)=C/OC1C=C(C)C(=O)O1 (centres unmarked) [Compound P-9, methyl (2E)-4-methyl-2-[(4-methyl-5-oxo-2H-furan-2-yl)oxymethylene]pent-3-enoate]
change in vivo at 250 µM [1]: > 50%
percent reduction of T50 germination time vs untreated control at 250 µM [1]: > 5%

Compound: C=C(C)C1(/C=C/C(=C\OC2C=C(C)C(=O)O2)C(=O)OC)C(=O)CC1(C)C (centres unmarked) [Compound P-15, methyl (E,2E)-4-(1-isopropenyl-2,2-dimethyl-4-oxo-cyclobutyl)-2-[(4-methyl-5-oxo-2H-furan-2-yl)oxymethylene]but-3-enoate]
change in vivo at 250 µM [1]: > 50%
percent reduction of T50 germination time vs untreated control at 250 µM [1]: > 5%
IC50 [2]: < 3000 nM

Compound: COC(=O)C(/C=C/C(C)(C)C)=C/OC1OC(=O)C(C)=C1C (centres unmarked) [Compound P-10, methyl (E,2E)-2-[(3,4-dimethyl-5-oxo-2H-furan-2-yl)oxymethylene]-5,5-dimethyl-hex-3-enoate]
change in vivo at 250 µM [1]: > 50%
percent reduction of T50 germination time vs untreated control at 250 µM [1]: > 5%

Second part, led by results:

IC50 [2]: < 3000 nM
Compound: COC(=O)/C=C/C(=C\OC1C=C(C)C(=O)O1)C(=O)OC (centres unmarked) [Compound P-8, dimethyl (E,4E)-4-[(4-methyl-5-oxo-2H-furan-2-yl)oxymethylene]pent-2-enedioate]
change in vivo at 250 µM [1]: > 50%
percent reduction of T50 germination time vs untreated control at 250 µM [1]: > 5%

IC50 [2]: < 3000 nM
Compound: COC(=O)C(/C=C/C(C)(C)C#N)=C/OC1C=C(C)C(=O)O1 (centres unmarked) [Compound P-16, methyl (E,2E)-5-cyano-5-methyl-2-[(4-methyl-5-oxo-2H-furan-2-yl)oxymethylene]hex-3-enoate]

IC50 [2]: < 3000 nM
Compound: COC(=O)C(/C=C/C1CCC(F)(F)CC1)=C/OC1C=C(C)C(=O)O1 (centres unmarked) [Compound P-2, methyl (E,2E)-4-(4,4-difluorocyclohexyl)-2-[(4-methyl-5-oxo-2H-furan-2-yl)oxymethylene]but-3-enoate]
change in vivo at 250 µM [1]: > 50%
percent reduction of T50 germination time vs untreated control at 250 µM [1]: > 5%

IC50 [2]: < 3000 nM
Compound: COC(=O)C(/C=C/C1(C)CCCC1)=C/OC1C=C(C)C(=O)O1 (centres unmarked) [Compound P-6, methyl (E,2E)-4-(1-methylcyclopentyl)-2-[(4-methyl-5-oxo-2H-furan-2-yl)oxymethylene]but-3-enoate]
change in vivo at 250 µM [1]: > 50%
percent reduction of T50 germination time vs untreated control at 250 µM [1]: > 5%

IC50 [2]: < 3000 nM
Compound: COC(=O)C(/C=C/C(C)(C)C(=O)N(C)C)=C/OC1C=C(C)C(=O)O1 (centres unmarked) [Compound P-20, methyl (E,2E)-6-(dimethylamino)-5,5-dimethyl-2-[(4-methyl-5-oxo-2H-furan-2-yl)oxymethylene]-6-oxo-hex-3-enoate]

IC50 [2]: < 3000 nM
Compound: COC(=O)C(/C=C/C1(C)CC1)=C/OC1C=C(C)C(=O)O1 (centres unmarked) [Compound P-7, methyl (E,2E)-4-(1-methylcyclopropyl)-2-[(4-methyl-5-oxo-2H-furan-2-yl)oxymethylene]but-3-enoate]

IC50 [2]: < 3000 nM
Compound: COC(=O)C(/C=C/C12CC3CC(CC(C3)C1)C2)=C/OC1C=C(C)C(=O)O1 (centres unmarked) [Compound P-4, methyl (E,2E)-4-(1-adamantyl)-2-[(4-methyl-5-oxo-2H-furan-2-yl)oxymethylene]but-3-enoate]
percent reduction of T50 germination time vs untreated control at 250 µM [1]: > 5%

IC50 [2]: < 3000 nM
Compound: COC(=O)C(/C=C/C(C)(C)OC)=C/OC1C=C(C)C(=O)O1 (centres unmarked) [Compound P-12, methyl (E,2E)-5-methoxy-5-methyl-2-[(4-methyl-5-oxo-2H-furan-2-yl)oxymethylene]hex-3-enoate]
change in vivo at 250 µM [1]: > 50%
